Data reported in US20260240851A1, “Treatment of Parkinson's Disease in a Patient Using a Glucocerebrosidase Activator” (BIAL - R&D Investments, S.A., priority 2023, published 2026).

Key:
[1] = BIA 28-6156-105: continuous cardiac monitoring, concentration-QTc analysis
[2] = system: GluCer in plasma and PBMCs; assay: LTI-291-001: GluCer biomarker; type: in vivo, human; details: single doses, vs placebo
Experimental: The pharmacodynamic evaluations consisted of a battery of CNS (NeuroCart®) assessments, including Saccadic Eye Movements, Smooth Pursuit Eye Movements, Adaptive Tracking, Body Sway, Visual Verbal Learning Test, and EEG. GluCer was measured in plasma and PBMCs as a biomarker of pharmacological effect.

[3] = after 6 days of dosing with 60 mg, Madopar portion
Experimental: This was a Phase 1, non-randomized, open-label, 2-cohort, cross-over, DDI study in healthy male and female subjects.
In Cohort 2, a single oral dose 100 mg/25 mg levodopa-benserazide (Madopar®) IR was administered alone on Day 1.

[4] = LTI-291-004: safety and tolerability; type: in vivo, human
Experimental: This study was a Phase 1B, randomized, double-blind, placebo-controlled, multiple oral dose study of Compound A in 14 subjects (aged 51 to 81 years) with GBA-PD. The objectives of this study were to investigate the safety, tolerability, and PK of multiple once-daily oral administration of Compound A and to explore the accompanying pharmacodynamic changes. Subjects received once-daily oral doses of 10 mg (n=6) or 60 mg (2×30 mg capsules) (n=6) Compound A or placebo (n=2) for 28 consecutive days. PK samples were measured once on Day 7 and Day 14 and 4 times after the last dose on Day 28. Plasma concentrations were summarized at each time point, and no PK parameters were estimated. The PD evaluations included fMRI measures; FDG-PET to determine the metabolic rate of glucose in specific regions of the brain; and functional outcome measures (MDS-UPDRS Part III and the MMSE). GluCer, GluSph, and LacCer and other sphingolipids were measured in PBMCs and plasma as biomarkers of pharmacological effect.

[5] = Phase 2 placebo-controlled study of Compound A in GBA-PD (Example 3); type: in vivo, human
Source text: This study is a Phase 2, randomized, double-blind, placebo-controlled, multiple oral dose study of Compound A in subjects (aged 35 to 80 years, inclusive) with GBA-PD. The subjects have a clinical diagnosis of PD for at least 1 year and for no longer than 7 years before initiation of screening (for Part A), as confirmed by a neurologist using the MDS Criteria for Parkinson's Disease, have a modified Hoehn and Yahr score 2.5, have a score of ≥22 on the Montreal Cognitive Assessment (MoCA), and are receiving symptomatic treatment for PD. […] The objectives of this study are to investigate the efficacy, safety, tolerability, pharmacodynamics and PK of once-daily oral administration of Compound A.
Genetic screening of the subjects is performed using blood collected (preferably whole blood samples). Subjects are screened by sequencing of the full GBA1 gene, with specifications of any PD risk-associated variants that are identified. Subjects are also screened for the presence or absence of PD risk-associated variants in the LRRK2 (Leucine-rich repeat kinase 2) gene. Subjects who have an LRRK2 pathogenic variant are not eligible for Part B (Double-Blind Treatment) of the study.
Subjects that have a pathogenic variant in the glucocerebrosidase 1 (GBA1) gene (GBA-PD) (for example, see Appendix 1) and have been on a stable dose of PD medication for at least 30 days (at least 60 days for rasagiline) before commencing treatment are included in the next stage of the trial. In addition, subjects with the following are excluded from further treatment: • The subject has Gaucher's disease (GD), as defined by clinical signs and symptoms (i.e., hepatosplenomegaly, cytopenia, skeletal disease), and/or a medical history of marked deficiency of GCase plasmatic activity (preferably GCase whole blood activity) compatible with GD. • The subject is homozygous for a GBA1 pathogenic variant that is known to be associated with GD or compound heterozygous for 2 alleles that are known to be associated with GD. • The subject carries a known PD-associated LRRK2 pathogenic variant (for example, see Appendix 2). • The subject has atypical or secondary parkinsonism by medical history or in the opinion of the investigator. Atypical parkinsonism includes, but is not limited to, diagnoses of progressive supranuclear palsy, cortico-basal syndrome, and multiple system atrophy. Secondary parkinsonism includes drug-induced, toxin-induced, postinfectious, posttraumatic, or vascular parkinsonism. • The subject is using a strong CYP3A4 modulator at the time of screening for Part B. • The subject is using a breast cancer resistance protein (BCRP) substrate (e.g. pravastatin, rosuvastatin, glyburide) at the time of screening for Part B. • (Optionally) The subject has used any of the following medications within 60 days before Baseline: typical or atypical antipsychotics (including, but not limited to, clozapine, pimavanserin, olanzapine, quetiapine, risperidone, and aripiprazole); metoclopramide; prochlorperazine; methyldopa; tetrabenazine; deutetrabenazine; valbenazine; reserpine; or a prior history or continuation or initiation during the study of ambroxol at doses >120 mg/day.
Subjects are randomly assigned to three groups who receive i) Compound A 10 mg, once daily, oral administration, ii) Compound A 60 mg, once daily, oral administration, or iii) Placebo, once daily, oral administration. Subjects also receive their usual PD medications throughout the study. Randomization is stratified by major/severe (e.g., heterozygous for N370S, D409H, H255Q, D140H, G202R, L324P, I260T, L444P, A190T, R120W; homozygous for T369M or E326K) or minor/mild (e.g., heterozygous for T369M or E326K) PD risk-associated variant. Alternatively, randomization is stratified by severity as a mild or severe GBA1 variant as described in Parlar, 2023 (also see Appendix 1). […]

[6] = BIA 28-6156-107: safety and tolerability; type: in vivo, human
[7] = system: GluCer, GluSph and LacCer in plasma, PBMCs and CSF; assay: LTI-291-003: glycolipid biomarkers; type: in vivo, human; details: for GluCer and LacCer in PBMCs: GBA-PD
Experimental: GluCer, GluSph, and LacCer were measured in plasma, PBMCs, and CSF as biomarkers of pharmacological effects. The pharmacodynamic evaluations also consisted of a battery of NeuroCart assessments (Saccadic Eye Movements, Smooth Pursuit Eye Movements, Adaptive Tracking, Body Sway, and Visual Verbal Learning Test); functional outcome measures (MDS-UPDRS Part III, and the MMSE); and pharmaco-EEG.

## CCCCCO[C@H]1CC[C@H](NC(=O)c2cnn3c(C)cc(C)nc23)CC1 [Compound A, 5,7-dimethyl-N-((1S*,4S)-4-(pentyloxy)cyclohexyl)pyrazolo[1,5-a]pyrimidine-3-carboxamide]
[1]; doses of 60 and 150 mg
  effects on cardiac ECG parameters: no clinically relevant effects
[1]; plasma concentrations of Compound A up to approximately 7150 ng/mL
  effect on ΔΔQTcF (concentration-QTc analysis): ≤ 10 ms
[2]
  GluCer variables in PBMCs: Differences between treatment with Compound A and placebo were observed
  GluCer variables in plasma: No significant overall treatment effects
[3]
  steady state concentrations of Compound A: appeared not to have been reached
[4]; 10 or 60 mg daily for 28 days
  deaths, SAEs, severe AEs: No deaths, other SAEs, or severe AEs
[4]; in vivo
  relatedness of AEs to study treatment: None of the AEs were considered related to the study treatment
  vital signs, laboratory safety assessments, physical examinations, ECG parameters: no clinically significant safety observations
[5]; all measured time points
  Mean plasma concentrations, 60 mg vs 10 mg: higher after the 60 mg dose than after the 10 mg dose
[5]; some subjects, Compound A 10 or 60 mg daily up to 78 weeks vs placebo
  time to worsening (MDS-UPDRS based and other measures): increased time to worsening
[5]; vs placebo
  Mean change in lysosomal activity: higher
  Mean change in plasma concentrations of neurofilament light chain: lower
  Mean change of cerebral blood flow by arterial spin labeling with MRI: higher
  mean change in the level of GluSph: higher
[6]; 60 mg Compound A with 25 mg/100 mg immediate-release carbidopa-levodopa
  AEs: No AEs were reported
[6]; 60 mg Compound A with 300 mg extended-release carbamazepine
  subjects reporting AEs: 25.0%
[6]; after 60 mg Compound A alone, 12 subjects
  subjects reporting AEs: 16.7%
[6]; in vivo
  SAEs: No SAEs were reported
  vital signs, physical examinations, ECG parameters, C-SSRS: no clinically significant safety observations
[7]; 7 and 14 days of treatment
  GluCer and LacCer in PBMCs: statistically significant increase
[7]; 10, 30, 60 mg/day
  dose-response or exposure-response of PBMC glycolipid effects: no obvious dose-response or exposure response relationship
[7]; 28 days
  plasma or CSF levels of glycolipids: no obvious changes
[7]; 28 days of treatment
  GluCer and LacCer in PBMCs: smaller increase
[7]; Gaucher or major vs polymorphism GBA1 mutations
  PBMC glycolipid effects by severity of GBA1 mutation: generally greater
[7]; vs placebo
  Intracellular GluSph in PBMCs: did not show a clear response
